This assay concerns the target T1, Polyphenol oxidase 2 (Agaricus bisporus, UniProt O42713).
T1 sequence (O42713 whole entry): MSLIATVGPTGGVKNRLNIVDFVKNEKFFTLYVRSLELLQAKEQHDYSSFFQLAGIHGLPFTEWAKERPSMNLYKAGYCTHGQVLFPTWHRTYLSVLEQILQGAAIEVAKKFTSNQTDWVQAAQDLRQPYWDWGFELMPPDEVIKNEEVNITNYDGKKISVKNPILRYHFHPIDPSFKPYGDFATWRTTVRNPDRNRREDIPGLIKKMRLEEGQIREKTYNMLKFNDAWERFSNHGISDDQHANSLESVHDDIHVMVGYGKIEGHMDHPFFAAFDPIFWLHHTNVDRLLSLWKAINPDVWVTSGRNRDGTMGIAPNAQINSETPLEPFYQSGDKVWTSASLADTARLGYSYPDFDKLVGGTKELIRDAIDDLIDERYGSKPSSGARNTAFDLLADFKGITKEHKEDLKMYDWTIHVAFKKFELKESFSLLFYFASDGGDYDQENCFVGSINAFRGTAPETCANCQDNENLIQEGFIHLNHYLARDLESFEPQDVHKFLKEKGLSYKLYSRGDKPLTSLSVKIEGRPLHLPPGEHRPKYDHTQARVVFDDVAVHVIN
In words: Inhibition Assay. From the text:
Inhibition of alklbenzaldehydes on tyrosinase enzyme.

Drawing on BindingDB's records for doi:10.1080/14756360310001613094 (Xiamen University, 2003), this text covers IC50 and Ki for 12 compounds.

As a reminder, the IC50 is the midpoint of a concentration-inhibition curve. Higher therefore signals lower potency. In general, Ki refers to the equilibrium dissociation constant of an inhibitor or competing ligand from its target. Lower therefore signals tighter binding.

With `Cc1ccc(C=O)cc1` [4-Methylbenzaldehyde], inhibition was half-maximal at 120 µM (IC50).

As to `Cc1cccc(C=O)c1` [m-Tolualdehyde, b], the IC50 came out at 450 µM and the inhibition constant (Ki) turned out to be 290 µM.

In turn, `Cc1ccccc1C=O` [o-Tolualdehyde, a] yielded an IC50 of 2600 µM and a Ki of 1850 µM.

`CCc1ccc(C=O)cc1` [p-Ethylbenzaldehyde, d]: the IC50 came out at 95 µM.

In turn, `CCCCCCCc1ccc(C=O)cc1` [p-Heptylbenzaldehyde, k] registered an IC50 of 8.8 µM.

`CCCCCCc1ccc(C=O)cc1` [p-Hexylbenzaldehyde, j]: the midpoint of inhibition, the IC50, lay at 8 µM.

In the case of `CC(C)c1ccc(C=O)cc1` [p-Isopropylbenzaldehyde, f], the IC50 was 75 µM.

With `CCCCCCCCc1ccc(C=O)cc1` [p-Octylbenzaldehyde, l], the IC50 was 10 µM.

With `CCCCCc1ccc(C=O)cc1` [p-Pentylbenzaldehyde, i], half-maximal inhibition (IC50) required 13.5 µM.

As to `CCCc1ccc(C=O)cc1` [p-Propyl-benzaldehyde, e], the IC50 came out at 75 µM.

Turning to `CC(C)(C)c1ccc(C=O)cc1` [p-Tert-butylbenzaldehyde, g], the IC50 came out at 38 µM.

As for `CCCCc1ccc(C=O)cc1` [p-butyl-benzaldehyde, h], inhibition was half-maximal at 38 µM (IC50).
